According to US4050989A, “Process of preparing desacyl-pepsidine with bacillus pumilus” (Eisai Co., Ltd., priority 1974, dated 1977):

Legend:
pepsin = pepsin (Sus scrofa, UniProt P00791); assay: Pepsin-inhibitory activity (method of Murao and Satoi); assay type: biochemical
Method: viii. Pepsin-inhibitory activity: Pepsin-inhibitory activity of DA-pepsidine was determined using the method reported by S. Murao and S. Satoi in Agr. Biol. Chem. Japan 34 (8) 1265 - 7 (1970). […] While, that of pepsidine C is 0.86 μg.

Solubility in solvents = assay type: physicochemical

Sequence of pepsin (P00791 60-385): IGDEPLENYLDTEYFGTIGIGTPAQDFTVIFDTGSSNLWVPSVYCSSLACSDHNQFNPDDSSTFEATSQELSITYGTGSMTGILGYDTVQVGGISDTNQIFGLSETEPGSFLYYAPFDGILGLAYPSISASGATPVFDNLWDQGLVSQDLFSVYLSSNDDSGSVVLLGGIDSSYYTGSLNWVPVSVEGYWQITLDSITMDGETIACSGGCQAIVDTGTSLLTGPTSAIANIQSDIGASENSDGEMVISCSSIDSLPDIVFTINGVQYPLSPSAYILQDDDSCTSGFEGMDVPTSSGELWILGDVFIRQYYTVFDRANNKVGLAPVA

| amount which gives 50% inhibition against 100 μg of pepsin (pepsin) | Solubility (Solubility in solvents; in acetic acid and methanol) | Solubility (Solubility in solvents; in acetone and ethylether) | Solubility (Solubility in solvents; in ethanol, n-butanol and pyridine) | Structure (SMILES) |
| --- | --- | --- | --- | --- |
| 0.82 µg | Easily soluble | slightly soluble | soluble | CC(C)CC(NC(=O)[C@H](C)NC(=O)CC(O)C(CC(C)C)NC(=O)[C@@H](NC(=O)[C@@H](N)C(C)C)C(C)C)C(O)CC(=O)O (some centres unmarked) [DA-pepsidine, valyl-valyl-4-amino-3-hydroxy-6-methyl-heptanoyl alanyl-4-amino-3-hydroxy-6-methyl-heptanoic acid] |
| 0.86 µg |  |  |  | CC(=O)N[C@H](C(=O)N[C@H](C(=O)NC(CC(C)C)C(O)CC(=O)N[C@@H](C)C(=O)NC(CC(C)C)C(O)CC(=O)O)C(C)C)C(C)C (some centres unmarked) [pepsidine C, reference compound] |
